Experimental data published in patent publication US20250073232A1, “COMBINATIONS OF LSD1 INHIBITORS FOR TREATING MYELOID CANCERS” (ORYZON GENOMICS, S.A., priority 2021, published 2025).

How the values were obtained:
[1] = system: MV(4; 11); assay: Single agent viability assay (96 hours, alamarBlue); type: cell-based; conditions: for EC50: Homo sapiens, MV4-11, 96 hours incubation
Method: (§1) Mycoplasma-free AML cell lines were maintained in RPMI 10% FBS medium at 37° C. in a humidified incubator with controlled 5% CO2 atmosphere. Cell freezing and thawing was performed following recommendation from ATCC. Genetic profiling of the cell lines used is available in Table 1.
(§2) Cells were seeded in 96-well plates at the optimal density to guarantee linear growth throughout the assay (8000 cells/well for MV(4; 11), 4000 cells/well for MOLM-13 and OCI-AML3, 2000 cells/well for TF1a) in 50 μL of medium. Each experimental condition was tested in technical triplicates, including medium-only and vehicle-treated controls for background correction and normalization, respectively. After seeding, 50 μL of medium containing 9 serial dilutions (1:3) of 2×-concentrated compound were added to the cells to obtain 100 μL of cells with 1×-concentrated compound at each dilution. Cells were then incubated for 96 hours at 37° C. in a controlled 5% CO2 atmosphere, prior to evaluation of cell viability using alamarBlue™ cell viability reagent (ThermoFisher Scientific, Waltham, MA/USA). AlamarBlue™ is a cell viability indicator that uses the natural reducing power of living cells to convert resazurin to the fluorescent molecule, resorufin. Briefly, alamarBlue™ stock solution was diluted 1:20 in the culture medium and after 3 hours incubation fluorescence was measured using a TECAN Infinity 2000 plate reader (Tecan Group Ltd., Männedorf, CH; 540-570 nm excitation wavelength, 580-610 nm emission wavelength). For each condition, the average fluorescence was calculated from the 3 technical replicates; background correction was calculated from the fluorescence of medium-only controls. Data were analyzed using the GraphPad PRISM® version 9.0.1 (GraphPad Software, Inc., La Jolla, CA/USA) to calculate the best-fitting curves and the EC50 values.

[2] = system: MOLM-13; assay: as above; type: cell-based; conditions: for EC50: Homo sapiens, 96 hours incubation
Method: as §1, §2

[3] = system: TF-1a; assay: as above; type: cell-based; conditions: for EC50 range in words / reduction of viability (compared to vehicle controls): 96 hours; for EC50: TF-1a
Method: as §1, §2

[4] = system: OCI-AML3; assay: as above; type: cell-based; conditions: for EC50: Homo sapiens; for EC50 range in words / reduction of viability (compared to vehicle controls): single agent, 96 hours
Method: as §1, §2

[5] = system: R/R AML; conditions: R/R AML patients treated with gilteritinib; cited from earlier work
[6] = single agent, 96 hours incubation
[7] = OCI-AML-3, single agent, 96 hours incubation

Row | EC50 range in words ([2]; 96 hours) | EC50 [2] [nM] | EC50 [4, 7] [nM] | EC50 range in words [4] | EC50 ([4]; OCI-AML-3, tested following the method described above) [nM] | Compound | EC50 range in words ([1]; 96 hours) | EC50 [1] [nM] | EC50 range in words ([3]; TF1a, single agent) | reduction of viability (compared to vehicle controls) ([3]; TF1a, single agent) | EC50 [3, 6] [nM] | reduction of viability (compared to vehicle controls) ([1]; 96 hours) [%] | reduction of viability (compared to vehicle controls) ([2]; 96 hours) [%] | reduction of viability (compared to vehicle controls) [4] | R/R AML patients showing complete remission [5] [%] | relapse-free survival [5] | EC50 ([3]; TF1a, tested following the method described above) [nM]
1 | nanomolar range | 1.49 | – | – | – | COc1ccc(-c2c(-c3ccc(C#N)c(F)c3)nc(N3CCC(N)CC3)n(C)c2=O)cc1F [CC-90011, 4-[2-(4-aminopiperidin-1-yl)-5-(3-fluoro-4-methoxyphenyl)-1-methyl-6-oxo-1,6-dihydropyrimidin-4-yl]-2-fluorobenzonitrile] | nanomolar range | 2.3 | – | – | – | – | – | – | – | – | –
2 | nanomolar range | 2.91 | 1160 | micromolar range | – | CCc1nc(C(N)=O)c(Nc2ccc(N3CCC(N4CCN(C)CC4)CC3)c(OC)c2)nc1NC1CCOCC1 [gilteritinib, 6-ethyl-3-[[3-methoxy-4-[4-(4-methylpiperazinyl)piperidin-1-yl]phenyl]amino]-5-[(tetrahydro-2H-pyran-4-yl)amino]pyrazine-2-carboxamide] | nanomolar range | 0.77 | micromolar range | > 70% | 1020 | ~100 | ~100 | > 70% | 21 | around 4 months | –
3 | – | – | – | – | > 10000 | CC1(C)CCC(CN2CCN(c3ccc(C(=O)NS(=O)(=O)c4ccc(NCC5CCOCC5)c([N+](=O)[O-])c4)c(Oc4cnc5[nH]ccc5c4)c3)CC2)=C(c2ccc(Cl)cc2)C1 [venetoclax] | – | – | – | – | – | – | – | – | – | – | > 10000

Continued, compound first:

Row | Compound | EC50 range in words ([2]; 96 hours) | EC50 [2] [nM] | EC50 [4, 7] [nM] | EC50 range in words [4] | EC50 ([4]; OCI-AML-3, tested following the method described above) [nM] | EC50 range in words ([1]; 96 hours) | EC50 [1] [nM] | EC50 range in words ([3]; TF1a, single agent) | reduction of viability (compared to vehicle controls) ([3]; TF1a, single agent) | EC50 [3, 6] [nM] | reduction of viability (compared to vehicle controls) ([1]; 96 hours) [%] | reduction of viability (compared to vehicle controls) ([2]; 96 hours) [%] | reduction of viability (compared to vehicle controls) [4] | R/R AML patients showing complete remission [5] [%] | relapse-free survival [5] | EC50 ([3]; TF1a, tested following the method described above) [nM]
4 | CN1CCN(C(=O)[C@H](CCCN[C@@H]2C[C@H]2c2ccc(F)cc2)NC(=O)c2ccc(-n3ccnn3)cc2)CC1 [bomedemstat, N-[(2S)-5-{[(1R,2S)-2-(4-fluorophenyl)cyclopropyl]amino}-1-(4-methylpiperazin-1-yl)-1-oxopentan-2-yl]-4-(1H-1,2,3-triazol-1-yl) benzamide] | nanomolar range | 6.08 | – | – | – | nanomolar range | 3.73 | – | – | – | – | – | – | – | – | –
5 | N[C@H]1CC[C@H](N[C@@H]2C[C@H]2c2ccccc2)CC1 [iadademstat, (trans)-N1-((1R,2S)-2-phenylcyclopropyl)cyclohexane-1,4-diamine] | sub-nanomolar range | 0.39 | 0.38 | sub-nanomolar range | – | sub-nanomolar range | 0.43 | sub-nanomolar range | greater than 20% | 0.35 | – | – | greater than 20% | – | – | –
